The text below walks through data of patent US8350032B2, “Integrated photoactive agents for real-time monitoring of hemostasis” (MediBeacon Development, LLC, priority 2007, dated 2013).

The term IC50 denotes the concentration that inhibits the measured activity by half. The low end stands for inhibition by little substance, the high end for a need for much substance.

For the test, the system named is production of thrombin via activation of the extrinsic cascade (tissue factor pathway). In words: whole blood activity screen: inhibition of thrombin production when clotting is activated via the tissue factor pathway (extrinsic cascade). The format is biochemical. The note with it: nine concentrations, in triplicate, FIG. 4. How it is done: The compound (MP3117) of Example 1 was tested for its ability to inhibit the production of thrombin via activation of the extrinsic cascade. In particular, an assay that included a whole blood activity screen was performed. In this regard, nine aqueous solutions containing varying concentrations of the compound of Example 1 were tested for their ability to inhibit thrombin production when clotting was activated via the tissue factor pathway (in triplicate). The data from the assay was also utilized to extract the IC50 for the compound. Incidentally, “IC50” refers to the amount of a compound necessary to inhibit 50% of the active enzyme to which it binds.

Compound `N=C(N)c1ccc(CNC(=O)c2nc(N)c(C(=O)NCc3ccc(C(=N)N)cc3)nc2N)cc1` [Example 1, 3,6-diamino-N2,N5-bis(4-carbamimidoylbenzyl)pyrazine-2,5-dicarboxamide] gave a half-inhibitory concentration (IC50) of 12.4 ± 0.79 nM.
